From patent publication US8399491B2, “Derivatives of indole-2-carboxamides and of azaindole-2-carboxamides substituted with a silanyl group, preparation thereof and therapeutic use thereof” (Sanofi, priority 2008, dated 2013)

biological target: T1, TRPV1 receptor (Rattus norvegicus, UniProt O35433); assay: Inhibition of the current induced by capsaicin on rat DRGs (whole-cell patch-clamp); type: cell-based; conditions: compound at 1 nM; capsaicin response (1 microM); newborn rat DRG primary culture
T1 construct: The neurones of the DRG naturally express the TRPV1 receptor; endogenous in cells; host or cells: primary culture of newborn rat dorsal root ganglion (DRG) neurones
T1 sequence (O35433 whole entry): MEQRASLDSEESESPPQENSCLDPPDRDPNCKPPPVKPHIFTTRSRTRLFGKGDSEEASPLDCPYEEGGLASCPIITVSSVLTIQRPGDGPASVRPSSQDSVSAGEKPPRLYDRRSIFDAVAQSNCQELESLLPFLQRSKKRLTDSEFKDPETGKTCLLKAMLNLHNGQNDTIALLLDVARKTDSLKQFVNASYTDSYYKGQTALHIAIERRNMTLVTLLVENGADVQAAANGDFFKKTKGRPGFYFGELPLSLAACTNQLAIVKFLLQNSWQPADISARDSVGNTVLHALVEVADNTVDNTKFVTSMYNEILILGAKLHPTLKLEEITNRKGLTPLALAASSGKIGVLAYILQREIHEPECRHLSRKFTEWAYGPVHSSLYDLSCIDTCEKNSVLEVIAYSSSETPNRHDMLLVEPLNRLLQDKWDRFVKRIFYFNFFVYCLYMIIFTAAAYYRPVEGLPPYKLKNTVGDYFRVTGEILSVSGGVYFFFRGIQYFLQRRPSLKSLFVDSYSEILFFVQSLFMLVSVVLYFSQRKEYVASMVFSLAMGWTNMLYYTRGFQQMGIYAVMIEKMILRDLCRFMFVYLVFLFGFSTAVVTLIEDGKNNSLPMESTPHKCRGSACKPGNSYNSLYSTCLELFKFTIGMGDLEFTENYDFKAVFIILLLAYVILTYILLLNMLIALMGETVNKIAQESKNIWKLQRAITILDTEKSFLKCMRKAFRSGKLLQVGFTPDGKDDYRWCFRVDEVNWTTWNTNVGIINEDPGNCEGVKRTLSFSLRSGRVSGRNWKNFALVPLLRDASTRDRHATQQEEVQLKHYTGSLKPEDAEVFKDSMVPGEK
Protocol: Test for Inhibition of the Current Induced by Capsaicin on Rat DRGs
Primary Culture of Rat Dorsal Route Ganglion (DRG) Cells:
The neurones of the DRG naturally express the TRPV1 receptor.
Newborn rat DRG primary cultures are prepared from 1-day-old rat pups. Briefly, after dissection, the ganglia are trypsinized and the cells are mechanically dissociated by controlled trituration. The cells are resuspended in an Eagle's basal culture medium containing 10% of foetal calf serum, 25 mM KCl, 2 mM glutamine, 100 μg/ml gentamicin and 50 ng/ml of NGF, and then deposited onto laminin-coated glass coverslips (0.2×10^6 cells per coverslip) which are then placed in Corning 12-well dishes. […]
The measuring chambers (volume 800 μl) containing the cell preparation are placed on the platform of an inverted microscope (Olympus IMT2) equipped with Hoffman optics (Modulation Contrast, New York) and observed at the magnification of ×400. […] The overall currents (membrane potential fixed at −60 mV) are recorded with an Axopatch 1D amplifier (Axon Instruments, Foster city, Calif.), connected to a PC controlled by Pclamp8 software (Axon Instruments). The current traces are recorded on paper and simultaneously digitized (sampling frequency 15 to 25 Hz) and acquired on the hard drive of the PC. […] The results are expressed as % inhibition of the control capsaicin response.

Row | SMILES | inhibition at 0.001 µM [%]
1 | C[Si](C)(C)c1ccc2cc(C(=O)Nc3ccc(N4CC(O)C4)nc3)n(Cc3cccc(F)c3)c2c1 [Compound 2, N-[6-(3-Hydroxyazetidin-1-yl)pyridin-3-yl]-6-trimethylsilyl-1-[(3-fluorophenyl)methyl]-1H-indole-2-carboxamide] | 84

same assay, conditions: compound at 10 nM; capsaicin response (1 microM); newborn rat DRG primary culture

Row | SMILES | inhibition at 0.01 µM [%]
2 | C[Si](C)(C)c1ccc2c(c1)cc(C(=O)Nc1ccc(N3CCC3)nc1)n2Cc1cccc(F)c1 [Compound 3, N-[6-(Azetidin-1-yl)pyridin-3-yl]-5-trimethylsilyl-1-[(3-fluorophenyl)methyl]-1H-indole-2-carboxamide] | 95

tested on: not given; assay: not given; conditions: not given

Row | SMILES | melting point [°C]
3 | C[Si](C)(C)c1cccc2cc(C(=O)Nc3ccc(N4CC(O)C4)nc3)n(Cc3cccc(F)c3)c12 | 215 to 217
4 | CC(C)[Si](C)(C)c1ccc2c(c1)cc(C(=O)Nc1ccc(N3CCC3)nc1)n2Cc1cccc(F)c1 | 179 to 180
5 | C[Si](C)(C)c1ccc2c(c1)cc(C(=O)Nc1ccc(N3CCC3)nc1)n2Cc1cccc(F)c1 [Compound 3, N-[6-(Azetidin-1-yl)pyridin-3-yl]-5-trimethylsilyl-1-[(3-fluorophenyl)methyl]-1H-indole-2-carboxamide] | 212 to 213
6 | C[Si](C)(c1ccc2c(c1)cc(C(=O)Nc1ccc(N3CCC3)nc1)n2Cc1cccc(F)c1)C1CCCCC1 | 202 to 203
7 | CC[Si](CC)(CC)c1ccc2c(c1)cc(C(=O)Nc1ccc(N3CCC3)nc1)n2Cc1cccc(F)c1 | 166 to 168
8 | CC[Si](C)(CC)c1ccc2c(c1)cc(C(=O)Nc1ccc(N3CCC3)nc1)n2Cc1cccc(F)c1 | 171 to 173
9 | CC(C)(C)[Si](C)(C)c1ccc2c(c1)cc(C(=O)Nc1ccc(N3CCC3)nc1)n2Cc1cccc(F)c1 | 110 to 112
10 | C[Si](C)(C)c1ccc2c(c1)cc(C(=O)Nc1ccc(N3CC(O)C3)nc1)n2Cc1cccc(F)c1 | 207 to 208
11 | C[Si](C)(C)c1cccc2cc(C(=O)Nc3ccc(N4CCC4)nc3)n(Cc3cccc(F)c3)c12 | 160 to 162
12 | O=C(Nc1ccc(N2CCC2)nc1)c1cc2cc([SiH2]C(c3ccccc3)c3ccccc3)ccc2n1Cc1cccc(F)c1 | 98 to 100
13 | C[Si](C)(c1ccccc1)c1ccc2c(c1)cc(C(=O)Nc1ccc(N3CCC3)nc1)n2Cc1cccc(F)c1 | 200 to 202
14 | CC[Si](C)(C)c1ccc2c(c1)cc(C(=O)Nc1ccc(N3CCC3)nc1)n2Cc1cccc(F)c1 | 188 to 189
15 | C[Si](C)(c1ccc2c(c1)cc(C(=O)Nc1ccc(N3CCCC3)nc1)n2Cc1cccc(F)c1)C1CCCCC1 | 192 to 194
